Assay results as given in US6930131B2, “Aryl substituted 3-ethoxy phenyl trifluoromethane sulfonamides for the treatment of non-insulin dependent diabetes mellitus (NIDDM)” (Wyeth, priority 2002, dated 2005).

Tests used:
[1] = test system: ob/ob (C57 B1/6J) mice; assay: Hypoglycemic effect in diabetic ob/ob mice; format: in vivo, mouse
Protocol: Hypoglycemic Effect in Diabetic OB/OB Mice
Procedure: In each study, male or female ob/ob (C57 B1/6J) mice and their mean litermates (ob/+ or +/+, Jackson Laboratories) ages 2 to 5 months (10 to 65 g) were randomized according to plasma glucose into 4 groups of 10 mice. The mice were housed 5 per cage and were maintained on normal rodent chow with water ad libitum. Mice receive compound daily by gavage (suspended in 0.5 ml of 0.5% methyl cellulose); dissolved in the drinking water; or admixed in the diet. The dose of compounds given ranges from 2.5 to 200 mg/kg body weight/day. Body weight of fed animals was measured at the beginning of each week and doses for the entire week were calculated using this weight and were expressed in terms of the active moiety of the compound. Control mice receive vehicle only. […]
Measurements: The plasma was isolated by centrifugation and the concentration of glucose was measured enzymatically on an Abbott V. P. Analyzer and the plasma concentration of insulin was determined by radioimmunoassay (Heding, 1972)
Analysis of variance followed by Dunnett's Comparison Test (one-tailed) was used to estimate the significant difference between the plasma glucose values from the control group and the individual compound treated groups (CMS SAS Release 5.18). A compound will be considered active if the difference has a p<0.05.

[2] = test system: Hepatocytes Isolated and Cultured from Obese Zucker (fa/fa) Rats; assay: Inhibition of glucose output from hepatocytes isolated and cultured from obese Zucker (fa/fa) rats; format: cell-based, rat; conditions: inhibition of glucose output vs glucagon stimulated cultured hepatocytes
Protocol: Inhibition of Glucose Output from Hepatocytes Isolated and Cultured from Obese Zucker (fa/fa) Rats and their Lean Controls
Culturing of Hepatocytes: Isolated hepatocytes were plated on 12 well rat-tail collagen coated plates at a cell density of 5×10(5) cells/ml (approximately 1 ml of cell suspension per well). Following a one hour attachment period in which plates were incubated in a CO2 incubator at 37 deg C. (95% O2, 5% CO2), the supernatant containing unattached hepatocytes was removed and replaced with fresh media (1 ml/well) containing 1 μM dexamethasone and 100 pM insulin. Cells were maintained at 37 deg C. for 48 hours in a 95% O2, 5% CO2 environment. At the end of the first 24 hours, the media was aspirated off of the wells and replaced with fresh media containing the same concentrations of dexamethasone and insulin as described earlier. Treatment with Drugs and Assessment of Glucose Output: Drugs were routinely added with fresh media 24 hours after the initial attachment period. Eighteen hours later, media was aspirated and 500 μl of fresh Hank's buffer, Buffer D (glucose-free) supplemented with hormones, gluconeogenic substrates and drug(s) was added to each well and incubated for 4 hours. At the end of the 4 hour incubation, media from each well was removed and assayed for glucose content using the hexokinase/glucose-6-phosphate dehydrogenase coupled assay on the Boehringer Mannheim model 911 auto analyzer. Glucose concentration was expressed as μg/ml. Three of the plates from each treated group were frozen for subsequent determination of protein content. Two plates from each treatment group were used to assess the cytotoxicity of drug(s) and other agents as determined by the MTT (tetrazolium) dye reduction method (see below).
Assessment of Cytotoxicity using MTT Dye Reduction Assay: Two plates with no insulin treatment and two plates with 10^−8 M insulin treatment were used for the MTT dye reduction assay. Following removal of media from the plates for measurement of glucose output, wells were washed once with 1 ml of Hank's buffer (0.5% BSA). Aliquots of […] of Hank's buffer (1.1% BSA) and […] MTT solution (5 mg MTT/ml in phosphate buffered saline (PBS) filtered through 0.45 micron syringe filter) were added to each well. Plates were incubated for one hour at 37 deg C. After one hour incubation, the MTT dye solution was aspirated off and […] of HCL/isopropanol solution (8 ml of 1 N HCL and 192 ml of isopropanol) was added to each well. HCL/isopropanol solution was mixed by drawing liquid into a pipetman 2 to 3 times and then carefully transferred into a 96 well flat bottom plate. The 96 well plate was read on a plate reader (UV max kinetic microplate reader, Molecular Devices) at 570 nm test wavelength and 650 nm reference wavelength. The results were expressed as % inhibition from the control (lactate and glucagon treated) well.
Protein test procedure: Three plates with no insulin treatment and three plates with 10^−8 M insulin treatment were used for protein determination. After supernatant has been removed for determination of glucose output the plates were frozen and stored at −20 deg C. until ready to assay for protein content. Prior to determination of protein the plates were defrosted at room temperature for 15 minutes. An aliquot of 1 ml 0.1 N NaOH was added to each well. Plates were incubated at 4 deg C. overnight. Solutions for measurement of protein content were mixed by pipetting the NaOH solution up and down several time with a 1 ml pipette and then transferring to a small polyethylene tube. Protein determination was based on that of the Pierce BCA protein assay protocol (Pierce cat. no. 23223). A set of protein standards (0.2, 0.4, 0.6, 0.8, and 1 mg/ml BSA) was prepared by serial dilution of 1 mg/ml bovine serum albumin with 0.1 N NaOH, and 40 μl of each standard, or control blank was pipetted into a 96-well plate in duplicate. Each unknown protein sample (40 μl) was tested in triplicate. […]

For O=S(=O)(Nc1cccc(CCOCc2ccc(-c3ccc(C(F)(F)F)cc3)cc2)c1)C(F)(F)F [Example 2, C,C,C-trifluoro-N-{3-[2-(4′-trifluoromethyl-biphenyl-4-ylmethoxy)-ethyl]-phenyl}-methanesulfonamide], the “Reduction in Plasma Glucose Day 1 (6 hr) p.o.” value ([1]; 5 mg/kg p.o.) was −8%, the “Reduction in Plasma Glucose Day 3 (6 hr) p.o.” value ([1]; 5 mg/kg p.o.) was −34% and the melting point was 98 to 100 °C.

O=S(=O)(Nc1cccc(CCOCc2ccc(-c3ccc(Cl)cc3)cc2F)c1)C(F)(F)F [Example 11, N-{3-[2-(4′-Chloro-3-fluoro-biphenyl-4-ylmethoxy)-ethyl]-phenyl}-C,C,C-trifluoro methane sulfonamide] gave an IC50 [2] of 10 µM.

CC(C)(C)c1ccc(-c2ccc(COCCc3cccc(NS(=O)(=O)C(F)(F)F)c3)c(F)c2)cc1 [Example 19, N-{3-[2-(4′-tert-Butyl-3-fluoro-biphenyl-4-ylmethoxy)-ethyl]-phenyl}-C,C,C-trifluoro-methanesulfonamide] gave an IC50 ([2]; Rattus norvegicus, Hepatocyte) of 8 µM and a melting point of 89 to 90 °C.

For O=S(=O)(Nc1cccc(CCOCc2ccc(-c3ccc(F)cc3)cc2Cl)c1)C(F)(F)F [Example 22], the IC50 [2] was 2.2 µM.

For O=S(=O)(Nc1cccc(CCOCc2ccc(-c3ccc(Cl)cc3)cc2Cl)c1)C(F)(F)F [Example 23, N-{3-[2-(3-Chloro-4′-chloro-biphenyl-4-ylmethoxy)-ethyl]-phenyl}-C,C,C-trifluoro methane sulfonamide], the IC50 [2] was 1.7 µM, the “Reduction in Plasma Glucose Day 1 (6 hr) p.o.” value ([1]; 5 mg/kg p.o.) was −37% and the “Reduction in Plasma Glucose Day 3 (6 hr) p.o.” value ([1]; 5 mg/kg p.o.) was −37%.

For COc1cc(-c2ccc(Cl)cc2)ccc1COCCc1cccc(NS(=O)(=O)C(F)(F)F)c1 [Example 26, N-{3-[2-(4′-Chloro-3-methoxy-biphenyl-4-ylmethoxy)-ethyl]-phenyl}-C,C,C-trifluoro methane sulfonamide], the IC50 [2] was 2.3 µM, the “Reduction in Plasma Glucose Day 1 (6 hr) p.o.” value ([1]; 20 mg/kg p.o.) was −20% and the “Reduction in Plasma Glucose Day 3 (6 hr) p.o.” value ([1]; 20 mg/kg p.o.) was “+1”.

With COc1ccc(-c2cc(COCCc3cccc(NS(=O)(=O)C(F)(F)F)c3)ccc2F)cc1 [Example 42, C,C,C-Trifluoro-N-{3-[2-(6-fluoro-4′-methoxy-biphenyl-3-yl-methoxy)-ethyl]-phenyl}-methanesulfonamide] the “Reduction in Plasma Glucose Day 1 (6 hr) p.o.” value ([1]; 10 mg/kg p.o.) was −14%, the “Reduction in Plasma Glucose Day 3 (6 hr) p.o.” value ([1]; 10 mg/kg p.o.) was −14% and the melting point was 70 to 71 °C.

Work on CC(C)(C)c1ccc(-c2nc(COCCc3cccc(NS(=O)(=O)C(F)(F)F)c3)cs2)cc1 [Example 43, N-(3-{2-[2-(4-tert-Butyl-phenyl)-thiazol-4-ylmethoxy]-ethyl}-phenyl)-C,C,C-trifluoro-methanesulfonamide] yielded an IC50 ([2]; Rattus norvegicus, Hepatocyte) of 6.9 µM and a melting point of 110 to 112 °C.

For O=S(=O)(Nc1cccc(CCOCc2csc(-c3ccc(F)c(Cl)c3)n2)c1)C(F)(F)F [Example 56, N-(3-{2-[2-(3-Chloro-4-fluoro-phenyl)-thiazol-4-ylmethoxy]-ethyl}-phenyl)-C,C,C-trifluoro-methanesulfonamide], the IC50 ([2]; Rattus norvegicus, Hepatocyte) was 15 µM, the “Reduction in Plasma Glucose Day 1 (6 hr) p.o.” value ([1]; 5 mg/kg p.o.) was −16% and the “Reduction in Plasma Glucose Day 3 (6 hr) p.o.” value ([1]; 5 mg/kg p.o.) was −26%.

Molecule CC(C)(C)c1ccc(COCCc2cccc(NS(=O)(=O)C(F)(F)F)c2)cc1 [Example 69, N-{3-[2-(4-tert-Butyl-benzyloxy)-ethyl]-phenyl}-C,C,C-trifluoro-methane sulfonamide] has a melting point of 40 to 42 °C.

Molecule O=S(=O)(Nc1cccc(CCOCc2ccc(Br)cc2F)c1)C(F)(F)F [Example 72, N-{3-[2-(4-Bromo-2-fluoro-benzyloxy)-ethyl]-phenyl}-C,C,C-trifluoro-methanesulfonamide] has a melting point of 48 to 50 °C.

O=S(=O)(Nc1cccc(CCOCc2cccc(OCc3ccccc3)c2)c1)C(F)(F)F [Example 73, N-{3-[2-(3-benzyloxy-benzyloxy)-ethyl]-phenyl}-C,C,C-trifluoro-methanesulfonamide] gave a melting point of 62 to 63 °C.

With O=S(=O)(Nc1cccc(CCOCc2ccc(I)cc2)c1)C(F)(F)F [Example 74, N-{3-[2-(4-Iodo-benzyloxy)-ethyl]-phenyl}-C,C,C-trifluoro-methanesulfonamide] the melting point was 48 to 50 °C.

Work on O=S(=O)(Nc1cccc(CCOCc2ccc(Oc3ccccc3)cc2)c1)C(F)(F)F [Example 76, N-{3-[2-(4-Phenoxy-benzyloxy)-ethyl]-phenyl}-C,C,C-trifluoro-methane sulfonamide] yielded a melting point of 47 to 49 °C.

For CC(C)(C)c1ccc(-c2nc(COCCc3cccc(NS(=O)(=O)C(F)(F)F)c3)no2)cc1 [Example 81, N-{3-[2-(5-(4-tert-Butyl-phenyl)-[1,2,4]oxadiazol-3-ylmethoxy)-ethyl]-phenyl}-C,C,C-trifluoro-methanesulfonamide], the melting point was 75 to 77 °C.

O=S(=O)(NCCc1cccc(OCc2noc(-c3ccc(C(F)(F)F)cc3)n2)c1)C(F)(F)F [Example 82, N-{2-[3-(5-(4-Trifluoromethyl-phenyl) [1,2,4]oxadiazol-3-ylmethoxy)-phenyl]-ethyl}-C,C,C-trifluoro-methanesulfonamide] gave a melting point of 83 to 86 °C.

Work on O=S(=O)(Nc1cccc(CCOCc2noc(-c3cccc(C(F)(F)F)c3)n2)c1)C(F)(F)F [Example 83, N-{3-[2-(5-(3-trifluoromethyl-phenyl)-[1,2,4]oxadiazol-3-ylmethoxy)-ethyl]-phenyl}-C,C,C-trifluoro-methanesulfonamide] yielded a melting point of 62 to 64 °C.

In the case of COc1cccc(-c2nc(COCCc3cccc(NS(=O)(=O)C(F)(F)F)c3)no2)c1 [Example 84, N-{3-[2-(5-(3-methoxy-phenyl)-[1,2,4]oxadiazol-3-ylmethoxy)-ethyl]-phenyl}-C,C,C-trifluoro-methanesulfonamide], the melting point is reported as 52 to 54 °C.

In the case of COc1ccc(-c2nc(COCCc3cccc(NS(=O)(=O)C(F)(F)F)c3)no2)cc1 [Example 85, N-{3-[2-(5-(4-methoxy-phenyl)-[1,2,4]oxadiazol-3-ylmethoxy)-ethyl]-phenyl}-C,C,C-trifluoro-methanesulfonamide], the melting point is reported as 88 to 90 °C.

Molecule O=S(=O)(Nc1cccc(CCOCc2noc(-c3ccc(C(F)(F)F)cc3)n2)c1)C(F)(F)F [Example 87, N-{3-[2-(5-(4-trifluoromethylphenyl)-[1,2,4]oxadiazol-3-ylmethoxy)-ethyl]-phenyl}-C,C,C-trifluoro-methanesulfonamide] has a melting point of 83 to 86 °C.

O=C(O)c1ncccc1S [Na-Mercaptopicolinic acid, reference compound] showed an IC50 [2] of 45 µM.
